# Patent US20230227405A1, “5-OXOPYRROLIDINE-3-CARBOXAMIDES AS NAV1.8 INHIBITORS” (MERCK SHARP & DOHME CORP., priority 2020, published 2023)
# Molecular target: T1, human Nav1.8 (Homo sapiens, UniProt Q9Y5Y9)
# T1 construct: expressed in transfected cells
# Assay: Qube® automated patch-clamp assay, Nav1.8
# Type: cell-based
# Details: human Nav1.8 stably expressed in HEK 293 cells; whole-cell voltage clamp, room temperature; read-out: IC50 values (nM) for Examples in the Nav1.8 Qube® Assay
# Description: Compounds were tested on human Nav1.8 and Nav1.5 channels stably expressed in human embryo kidney (HEK) 293 cells. Sodium current measurements on Qube® were conducted as follows: automated 384-well patch-clamp assays on the Qube® platform (Sophion Biosciences) were used to measure the inhibition of sodium flow through human Nav1.8 and Nav1.5 channels. Whole-cell voltage-clamp recordings were performed in QChips® (Sophion Biosciences) at room temperature. Nav1.8 current measurements on Qube® were obtained as follows: Nav1.8 currents were elicited with a 10 second 1 Hertz (Hz) pulse train from a holding potential of −90 millivolts (mV), delivered to the cells once per minute in the control condition (DMSO only) and after compound addition. The 1 hertz pulse train stimulation consisted of ten test pulses to 10 millivolt (mV) for 20 milliseconds (ms), each of which was followed by a 980 millisecond repolarization to −67 millivolts. At the end of the 10 second pulse train stimulation, a 5 second hyperpolarization step to −100 millivolt (mV) was used to recover Nav1.8 from fast inactivation. The peak currents elicited by the 1st and 10th test pulses were used to determine IC50 values for resting inhibition and inactivated state inhibition. Nav1.5 current measurements on Qube® were obtained as follows: Nav1.5 currents were elicited with a 20 second 3 Hertz pulse train in the control condition (DMSO only) and after compound addition. The pulse train consisted of sixty 20 millisecond test pulses to 0 millivolt from a holding potential of −80 millivolt (mV). The average peak currents elicited by the last 3 test pulses were used to determine IC50 values for Nav1.5 inhibition.
# The following buffers were used for the Qube® recordings: External buffer for Nav1.8 Qube® recording: 150 NaCl, 2 CaCl2, 5 KCl, 1 Mg Cl2, 10 HEPES, 12 Dextrose; External buffer for Qube® Nav1.5 recording: 120 N-Methyl-D-Glucamine, 40 NaCl, 1 KCl, 2.7 CaCl2, 5 HEPES, 0.5 MgCl2; and Internal buffer for Qube® recording: 120 CsF, 30 CsCl, 10 EGTA, 5 HEPES, 5 NaF, 2 MgCl2.
# For all Qube® experiments offline analysis was used to determine percent inhibition as a function of drug concentration. IC50 values were determined by fitting to the Hill equation.
# T1 sequence (Q9Y5Y9 whole entry): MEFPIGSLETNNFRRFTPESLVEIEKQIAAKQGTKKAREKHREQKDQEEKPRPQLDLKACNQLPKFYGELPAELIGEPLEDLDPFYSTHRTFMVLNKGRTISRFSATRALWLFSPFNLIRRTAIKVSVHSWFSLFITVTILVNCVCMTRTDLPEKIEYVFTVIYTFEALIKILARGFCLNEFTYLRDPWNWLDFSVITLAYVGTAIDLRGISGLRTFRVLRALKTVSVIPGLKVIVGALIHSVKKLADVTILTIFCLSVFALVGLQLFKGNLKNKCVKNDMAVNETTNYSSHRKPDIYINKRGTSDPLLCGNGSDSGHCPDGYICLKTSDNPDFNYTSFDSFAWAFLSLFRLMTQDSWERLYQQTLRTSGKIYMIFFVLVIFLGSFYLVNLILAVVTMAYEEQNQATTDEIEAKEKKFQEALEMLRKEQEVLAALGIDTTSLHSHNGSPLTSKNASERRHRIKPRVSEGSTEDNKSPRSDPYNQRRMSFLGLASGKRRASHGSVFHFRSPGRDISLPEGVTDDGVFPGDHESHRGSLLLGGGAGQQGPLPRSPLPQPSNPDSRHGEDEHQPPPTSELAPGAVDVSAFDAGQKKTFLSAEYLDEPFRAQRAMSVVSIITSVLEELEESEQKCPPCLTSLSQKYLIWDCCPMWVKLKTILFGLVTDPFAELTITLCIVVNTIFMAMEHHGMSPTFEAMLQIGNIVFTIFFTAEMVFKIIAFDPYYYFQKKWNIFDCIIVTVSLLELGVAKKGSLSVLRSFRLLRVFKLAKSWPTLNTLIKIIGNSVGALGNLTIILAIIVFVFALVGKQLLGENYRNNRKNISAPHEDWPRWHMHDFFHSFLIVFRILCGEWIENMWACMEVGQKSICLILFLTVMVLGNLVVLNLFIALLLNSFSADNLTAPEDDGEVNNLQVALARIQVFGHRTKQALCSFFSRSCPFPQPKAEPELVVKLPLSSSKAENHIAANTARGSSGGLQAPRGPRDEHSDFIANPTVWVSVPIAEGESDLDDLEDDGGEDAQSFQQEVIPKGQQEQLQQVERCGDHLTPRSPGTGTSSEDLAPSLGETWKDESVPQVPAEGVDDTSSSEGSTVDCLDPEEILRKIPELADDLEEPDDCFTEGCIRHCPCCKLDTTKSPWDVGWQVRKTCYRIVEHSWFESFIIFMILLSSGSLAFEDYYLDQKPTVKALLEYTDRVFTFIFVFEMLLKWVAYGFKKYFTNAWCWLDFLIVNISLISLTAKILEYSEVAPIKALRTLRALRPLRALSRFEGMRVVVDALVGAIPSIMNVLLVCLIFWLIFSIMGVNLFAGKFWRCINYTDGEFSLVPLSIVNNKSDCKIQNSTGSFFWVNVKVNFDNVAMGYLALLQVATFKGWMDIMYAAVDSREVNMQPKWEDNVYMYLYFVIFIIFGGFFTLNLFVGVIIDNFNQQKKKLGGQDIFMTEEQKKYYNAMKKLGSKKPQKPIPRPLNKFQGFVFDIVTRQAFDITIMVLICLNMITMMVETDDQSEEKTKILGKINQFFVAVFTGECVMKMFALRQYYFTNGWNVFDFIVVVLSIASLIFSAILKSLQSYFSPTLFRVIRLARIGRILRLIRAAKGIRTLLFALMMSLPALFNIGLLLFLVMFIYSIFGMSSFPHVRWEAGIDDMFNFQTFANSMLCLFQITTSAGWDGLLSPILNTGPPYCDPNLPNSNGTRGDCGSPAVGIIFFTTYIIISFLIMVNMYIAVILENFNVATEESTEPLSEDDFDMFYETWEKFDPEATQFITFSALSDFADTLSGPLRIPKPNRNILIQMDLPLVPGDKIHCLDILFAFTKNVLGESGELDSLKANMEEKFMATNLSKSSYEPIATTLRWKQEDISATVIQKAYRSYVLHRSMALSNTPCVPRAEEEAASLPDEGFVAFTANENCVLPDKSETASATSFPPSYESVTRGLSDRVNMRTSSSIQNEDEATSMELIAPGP
row,Compound,IC50 [nM]
1,"O=C1C[C@H](C(=O)NC(c2cccc(Cl)c2)c2cccc(OC(F)F)c2)CN1 (stereo partly drawn) [Example 6, (3S)-N-((3-chlorophenyl)(3-(difluoromethoxy)phenyl)methyl)-5-oxopyrrolidine-3-carboxamide]",520
2,"O=C1C[C@H](C(=O)NC(c2ccc(Cl)cc2)c2cc(F)cc(C(F)(F)F)c2)CN1 (stereo partly drawn) [Example 7, (3S)-N-((4-chlorophenyl)(3-fluoro-5-(trifluoromethyl)phenyl)methyl)-5-oxopyrrolidine-3-carboxamide]",186
3,"O=C1C[C@H](C(=O)NC(c2ccc(C(F)(F)F)cc2)c2cccc(C(F)(F)F)c2)CN1 (stereo partly drawn) [Example 8, (3S)-5-oxo-N-((3-(trifluoromethyl)phenyl)(4-(trifluoromethyl)phenyl)methyl)pyrrolidine-3-carboxamide]",19
4,"O=C1C[C@H](C(=O)NC(c2ccc(C(F)(F)F)cc2)c2ccc(C(F)(F)F)cc2)CN1 [Example 9, (S)-N-(bis(4-(trifluoromethyl)phenyl)methyl)-5-oxopyrrolidine-3-carboxamide]",28
5,"O=C1C[C@H](C(=O)NC(c2ccc(Cl)cc2)c2cccc(OC(F)(F)F)c2)CN1 (stereo partly drawn) [Example 10, (3S)-N-((4-chlorophenyl)(3-(trifluoromethoxy)phenyl)methyl)-5-oxopyrrolidine-3-carboxamide]",52
6,"O=C1C[C@H](C(=O)NC(c2ccc(F)c(Cl)c2)c2ccc(F)c(Cl)c2)CN1 [Example 18, (S)-N-(bis(3-chloro-4-fluorophenyl)methyl)-5-oxopyrrolidine-3-carboxamide]",5.3
7,"N#Cc1cc(C(NC(=O)[C@@H]2CNC(=O)C2)c2ccc(F)c(Cl)c2)ccc1F (stereo partly drawn) [Example 22, (3S)—N-((3-chloro-4-fluorophenyl)(3-cyano-4-fluorophenyl)methyl)-5-oxopyrrolidine-3-carboxamide]",32
8,"O=C1C[C@H](C(=O)NC(c2ccc(F)c(C(F)(F)F)c2)c2csc(C(F)(F)F)n2)CN1 (stereo partly drawn) [Example 23, (3S)-N-((4-fluoro-3-(trifluoromethyl)phenyl)(2-(trifluoromethyl)thiazol-4-yl)methyl)-5-oxopyrrolidine-3-carboxamide]",92
9,"O=C1C[C@H](C(=O)NC(c2ccc(F)c(C(F)(F)F)c2)c2ccc(F)c(Cl)c2F)CN1 (stereo partly drawn) [Example 24, (3S)-N-((3-chloro-2,4-difluorophenyl)(4-fluoro-3-(trifluoromethyl)phenyl)methyl)-5-oxopyrrolidine-3-carboxamide]",5.5
10,"O=C1C[C@H](C(=O)NC(COc2ccccc2)c2ccc(F)c(C(F)(F)F)c2)CN1 (stereo partly drawn) [Example 25, (3S)-N-(1-(4-fluoro-3-(trifluoromethyl)phenyl)-2-phenoxyethyl)-5-oxopyrrolidine-3-carboxamide]",53
11,"O=C1C[C@H](C(=O)NC(CCc2ccccc2)c2cccc(Cl)c2)CN1 (stereo partly drawn) [Example 26, (3S)-N-(1-(3-chlorophenyl)-3-phenylpropyl)-5-oxopyrrolidine-3-carboxamideNa]",435
